Experimental data published in patent US20040138199A1, “Benzoxazines and derivatives thereof as therapeutic agents” (priority 2002, published 2004).

Biological target: T1, p101/p110γ protein (PI3Kγ) (Homo sapiens, UniProt P48736)
T1 construct: HA; made in house; host or cells: Spodoptera frugiperda (Sf9) cells, baculovirus coinfection
Experiment: PI3Kγ In Vitro Kinase Assay
Type: biochemical
Settings: purified recombinant p101/p110γ with G protein β1/γ2 subunits; 20 μM ATP, 25 μM PIP2; 20 minutes at room temperature; radioactive PIP3 readout
Procedure: Spodtera frugiperda cells, grown in ESF921 media, were coinfected with baculovirus expressing a glu-tagged […] and baculovirus expressing an HA-tagged p110γ, at a 3:1 ratio of p110 baculovirus to p110γ baculovirus. Sf9 cells were grown to 1×10^7 total cells/mL in 10L bioreactors and harvested 48-72 hours post infection. Samples of infected cells were then tested for expression of p101/p110γ PI3 kinase by immunoprecipitation and Western Blot analysis methods (see below).
To purify PI3Kγ, 4 volumes of room temperature hypotonic lysis buffer (1 mM MgCl2, 1 mM DTT, 5 mM EGTA, 1 mM Pefabloc, 0.5 μM aprotinin, […], 2 μM pepstatin, 5 μM E64, pH 8) per gram of cell paste, was poured onto frozen cell pellets with stirring, then lysed in a nitrogen “bomb” at 400 psi (599HC T316, Parr Instrument Co, Moline, Ill.). NaCl was added to 150 mM, and sodium cholate was added to 1% and mixed for another 45 minutes. The lysates were clarified by centrifugation for 25 minutes at 14,000 rpm. The lysates were then loaded over anti-glu-linked Protein-G Sepaharose beads (Covance Research Products, Richmond, Calif.) using 20 mL resin/50 g cell paste. The column was washed with 15 volumes of wash buffer (1 mM DTT, 0.2 mM EGTA, 1 mM Pefabloc, 0.5 μM aprotinin, 5 μM leupeptin, 2 μM pepstatin, 5 μM E64, 150 mM NaCl, 1% sodium cholate, pH 8). PI3Kγ was eluted with 6 column volumes of wash buffer that contain 100 μg/mL of a peptide that competes for binding of the glu tag. The column fractions with the eluted protein (determined by taking OD280 readings) were collected and dialyzed in 0.2 mM EGTA, 1 mM DTT, 1 mM Pefabloc, 5 μM leupeptin, 0.5% sodium cholate, 150 mM NaCl, and 50% glycerol, pH 8. The fractions were stored at −80° C. until further use.
Spodtera frugiperda cells were coinfected with baculovirus expressing a glu-tagged G protein β1 and baculovirus expressing a […] at a 1:1 ratio of glu-tagged G protein β1 baculovirus to G protein β2 baculovirus. Sf9 cells are grown in 10 L bioreactors and harvested 48-72 hours post infection. Samples of infected cells were tested for G protein β1/β2 expression by Western Blot analysis, as described below. Cell lysates were homogenized and loaded onto a column of glu-tagged beads as in Biological Example 1 and competed off the column with a glu peptide as described in Biological Example 1.
The inhibitory properties of the compounds in Table 1 were assayed in an in vitro PI3K assay. In a 96-well polypropylene plate, each well was spotted with 2 μL of 50 times the desired final concentration of compound in DMSO. Purified recombinant p101/p110γ protein (0.03 μg; ˜2.7 nM) and G protein β1/γ2 subunits (0.09 μg; −57.7 nM) for each reaction was combined in the assay buffer (30 mM HEPES, 100 mM NaCl, 1 mM EGTA, and 1 mM DTT). ATP and [γ-^32P-ATP] (0.09 μCi) were added to this mixture so that the final ATP concentration in the reaction was 20 μM. Lipid micelles were formed by sonicating phosphatidylinositol-4,5-diphosphate (PIP2), phosphatidylethanolamine (PE), and Na-cholate in the assay buffer for 10 minutes, adding MgCL2 and incubating on ice for 20 minutes, for final concentrations of 25 μM PIP2, 300 μM PE, 0.02% Na-cholate, and 10 mM MgCl2 in the reaction. The reactions were started by adding equal volumes lipid and enzyme mixture in a total volume of 50 μL, allowed to run for 20 minutes at room temperature, and stopped with 100 μL 75 mM H3PO4. The lipid product was transferred to a glass fiber filter plate and washed with 75 mM H3PO4 several times. The presence of radioactive lipid product (PIP3) was measured by adding Wallac Optiphase mix to each well and counting in a Wallac 1450 Trilux plate reader (PerkinElmer Life Sciences Inc., Boston, Mass. 02118). The IC50 for each compound tested is reported in μM in Table 1: […]

T1 sequence (P48736 whole entry, species assumed): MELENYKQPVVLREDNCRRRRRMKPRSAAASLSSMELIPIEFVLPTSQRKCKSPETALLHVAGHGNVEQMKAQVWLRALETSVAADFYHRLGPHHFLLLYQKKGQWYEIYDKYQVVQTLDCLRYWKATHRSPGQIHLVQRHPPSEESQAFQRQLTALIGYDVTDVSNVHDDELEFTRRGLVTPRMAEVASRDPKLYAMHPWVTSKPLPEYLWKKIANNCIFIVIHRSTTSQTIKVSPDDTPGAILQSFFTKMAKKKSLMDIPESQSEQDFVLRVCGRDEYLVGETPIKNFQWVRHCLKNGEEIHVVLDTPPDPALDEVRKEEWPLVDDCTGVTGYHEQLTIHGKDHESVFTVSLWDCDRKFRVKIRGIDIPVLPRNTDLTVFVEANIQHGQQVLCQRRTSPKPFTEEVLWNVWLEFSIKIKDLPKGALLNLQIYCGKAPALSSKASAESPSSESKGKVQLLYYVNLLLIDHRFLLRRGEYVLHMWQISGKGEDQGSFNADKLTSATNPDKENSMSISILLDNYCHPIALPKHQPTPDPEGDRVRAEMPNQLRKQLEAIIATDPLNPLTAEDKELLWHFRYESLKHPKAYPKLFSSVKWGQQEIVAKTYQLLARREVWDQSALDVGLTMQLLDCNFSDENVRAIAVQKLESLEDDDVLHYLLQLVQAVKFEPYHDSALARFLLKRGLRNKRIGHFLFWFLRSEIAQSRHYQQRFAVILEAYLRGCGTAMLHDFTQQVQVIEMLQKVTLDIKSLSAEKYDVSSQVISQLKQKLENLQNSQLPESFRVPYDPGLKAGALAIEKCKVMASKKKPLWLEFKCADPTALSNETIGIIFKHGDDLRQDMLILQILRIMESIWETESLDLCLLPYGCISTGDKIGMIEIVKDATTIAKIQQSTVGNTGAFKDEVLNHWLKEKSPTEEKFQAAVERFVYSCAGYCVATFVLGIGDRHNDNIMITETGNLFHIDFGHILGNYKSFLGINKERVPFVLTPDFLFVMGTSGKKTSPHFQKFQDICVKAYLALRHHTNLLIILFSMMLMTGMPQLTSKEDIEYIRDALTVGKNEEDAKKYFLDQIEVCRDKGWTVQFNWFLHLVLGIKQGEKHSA
T1 sequence (Q8WYR1 whole entry partner, species assumed): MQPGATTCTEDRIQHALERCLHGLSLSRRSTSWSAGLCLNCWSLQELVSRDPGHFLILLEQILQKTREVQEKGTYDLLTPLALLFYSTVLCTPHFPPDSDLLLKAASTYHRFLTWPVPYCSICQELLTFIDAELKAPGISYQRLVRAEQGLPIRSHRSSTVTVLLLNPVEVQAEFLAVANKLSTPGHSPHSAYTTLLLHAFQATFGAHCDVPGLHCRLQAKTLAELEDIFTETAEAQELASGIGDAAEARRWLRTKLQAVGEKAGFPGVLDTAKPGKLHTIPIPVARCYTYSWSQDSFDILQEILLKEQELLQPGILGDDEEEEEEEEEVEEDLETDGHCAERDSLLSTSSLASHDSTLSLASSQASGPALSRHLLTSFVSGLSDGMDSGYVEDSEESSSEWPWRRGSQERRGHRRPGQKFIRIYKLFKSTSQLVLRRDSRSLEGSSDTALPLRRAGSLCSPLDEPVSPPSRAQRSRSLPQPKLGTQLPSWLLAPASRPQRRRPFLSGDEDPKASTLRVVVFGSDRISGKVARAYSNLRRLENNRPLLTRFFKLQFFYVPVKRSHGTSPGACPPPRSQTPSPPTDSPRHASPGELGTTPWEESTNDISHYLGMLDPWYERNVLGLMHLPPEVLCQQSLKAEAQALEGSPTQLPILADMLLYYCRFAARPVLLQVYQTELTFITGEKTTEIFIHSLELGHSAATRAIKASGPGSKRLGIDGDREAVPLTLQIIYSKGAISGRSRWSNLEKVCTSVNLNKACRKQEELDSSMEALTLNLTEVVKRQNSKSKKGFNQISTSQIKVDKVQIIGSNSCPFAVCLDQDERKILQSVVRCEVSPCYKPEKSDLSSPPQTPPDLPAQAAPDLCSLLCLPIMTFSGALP

Q: “2-(4-Oxo-2-thioxo-thiazolidin-5-ylidenemethyl)-7,8-dihydro-6H-5-oxa-9-aza-benzocycloheptene-9-carboxylic acid (3,5-dimethoxy-phenyl)-amide [Example 113]” was tested. Which IC50 did it give?
A: 1320 nM

Q: With “2-(4-Oxo-2-thioxo-thiazolidin-5-ylidenemethyl)-7,8-dihydro-6H-5-oxa-9-aza-benzocycloheptene-9-carboxylic acid p-tolyl ester [Example 107]” as the molecule, how does the IC50 read?
A: 704 nM

Q: For “2-(4-Oxo-2-thioxo-thiazolidin-5-ylidenemethyl)-7,8-dihydro-6H-5-oxa-9-aza-benzocycloheptene-9-carboxylic acid p-tolylamide [Example 110]”, which IC50 is on record?
A: 3500 nM

Q: “2-(4-Oxo-2-thioxo-thiazolidin-5-ylidenemethyl)-7,8-dihydro-6H-5-oxa-9-aza-benzocycloheptene-9-carboxylic acid phenyl ester [Example 105]” was tested. Which IC50 did it give?
A: 424 nM

Q: How did the IC50 turn out when “2-Thioxo-5-{9-[3-(3-trifluoromethyl-phenyl)-acryloyl]-6,7,8,9-tetrahydro-5-oxa-9-aza-benzocyclohepten-2-ylmethylene}-thiazolidin-4-one [Example 124]” was run?
A: 4010 nM

Q: With “2-[2-(4-Oxo-2-thioxo-thiazolidin-5-ylidenemethyl)-7,8-dihydro-6H-5-oxa-9-aza-benzocycloheptene-9-carbonyl]-anthraquinone [Example 127]” as the molecule, how does the IC50 read?
A: 4990 nM

Q: With “4-(3,5-dimethyl-benzyl)-3,4-dihydro-2H-benzo[1,4]oxazine-6-ylmethylene]-2-thioxo-thiazolidin-4-one [Example 4]” as the molecule, how does the IC50 read?
A: 650 nM

Q: How did the IC50 turn out when “4-[2-(4-Oxo-2-thioxo-thiazolidin-5-ylidenemethyl)-7,8-dihydro-6H-5-oxa-9-aza-benzocycloheptene-9-carbonyl]-benzonitrile [Example 121]” was run?
A: 2610 nM

Q: For “5-(9-Cyclopentanecarbonyl-6,7,8,9-tetrahydro-5-oxa-9-aza-benzocyclohepten-2-ylmethylene)-2-thioxo-thiazolidin-4-one [Example 111]”, which IC50 is on record?
A: 1000 nM

Q: “5-(9-Cyclopropanecarbonyl-6,7,8,9-tetrahydro-5-oxa-9-aza-benzocyclohepten-2-ylmethylene)-2-thioxo-thiazolidin-4-one [Example 104]” was tested. Which IC50 did it give?
A: 115 nM

Q: Which IC50 does the source give for “5-[4-(7,7-Dimethyl-2-oxo-bicyclo[2.2.1]hept-1-ylmethanesulfonyl)-3,4-dihydro-2H-1,4-benzoxazin-6-ylmethylene]-2-thioxo-thiazolidin-4-one [Example 60]” here?
A: 330 nM

Q: “5-[4-(Furan-2-carbonyl)-3,4-dihydro-2H-1,4-benzoxazin-6-ylmethylene]-2-thioxo-thiazolidin-4-one [Example 41]” was tested. Which IC50 did it give?
A: 65 nM

Q: “5-[9-(2-Benzyloxy-acetyl)-6,7,8,9-tetrahydro-5-oxa-9-aza-benzocyclohepten-2-ylmethylene]-2-thioxo-thiazolidin-4-one [Example 119]” was tested. Which IC50 did it give?
A: 1650 nM

Q: How did the IC50 turn out when “5-[9-(2-Thiophen-2-yl-acetyl)-6,7,8,9-tetrahydro-5-oxa-9-aza-benzocyclohepten-2-ylmethylene]-2-thioxo-thiazolidin-4-one [Example 112]” was run?
A: 1140 nM

Q: “5-[9-(3,4-Dichloro-benzoyl)-6,7,8,9-tetrahydro-5-oxa-9-aza-benzocyclohepten-2-ylmethylene]-2-thioxo-thiazolidin-4-one [Example 114]” was tested. Which IC50 did it give?
A: 1380 nM

Q: With “5-[9-(3-Phenyl-acryloyl)-6,7,8,9-tetrahydro-5-oxa-9-aza-benzocyclohepten-2-ylmethylene]-2-thioxo-thiazolidin-4-one [Example 115]” as the molecule, how does the IC50 read?
A: 1520 nM

Q: “5-[9-(4-Hexyl-benzoyl)-6,7,8,9-tetrahydro-5-oxa-9-aza-benzocyclohepten-2-ylmethylene]-2-thioxo-thiazolidin-4-one [Example 126]” was tested. Which IC50 did it give?
A: 4200 nM

Q: “5-[9-(5-tert-Butyl-2-methyl-furan-3-carbonyl)-6,7,8,9-tetrahydro-5-oxa-9-aza-benzocyclohepten-2-ylmethylene]-2-thioxo-thiazolidin-4-one [Example 125]” was tested. Which IC50 did it give?
A: 4600 nM

Q: With `O=C1NC(=S)SC1=Cc1ccc2c(c1)N(C(=O)c1ccccc1)CCO2` [Example 1, 5-[4-(1-Phenyl-methanoyl)-3,4-dihydro-2H-benzo[1,4]oxazine-6-ylmethylene]-2-thioxo-thiazolidin-4-one] as the molecule, how does the IC50 read?
A: 56 nM

Q: How did the IC50 turn out when `O=C1NC(=S)SC1=Cc1ccc2c(c1)N(C(=O)C1CCCCC1)CCO2` [Example 2, 5-[4-(1-Cyclohexyl-methanoyl)-3,4-dihydro-2H-benzo[1,4]oxazine-6-ylmethylene]-2-thioxo-thiazolidin-4-one] was run?
A: 21.7 nM

Q: How did the IC50 turn out when `O=C1NC(=S)SC1=Cc1ccc2c(c1)N(S(=O)(=O)c1ccccc1)CCO2` [Example 3, 5-[(4-benzenesulfonyl)-3,4-dihydro-2H-benzo[1,4]oxazine-6-ylmethylene)-2-thioxo-thiazolidin-4-one] was run?
A: 1130 nM

Q: How did the IC50 turn out when `CC(C)(C)c1cc(CN2CCOc3ccc(C=C4SC(=S)NC4=O)cc32)cc(C(C)(C)C)c1` [Example 5, 5[4-(3,5-Di-tert-butyl-benzyl)-3,4-dihydro-2H-benzo[1,4]oxazine-6-ylmethylene]-2-thioxo-thiazolidin-4-one] was run?
A: 1870 nM

Q: For `COc1cc(CN2CCCOc3ccc(C=C4SC(=S)NC4=O)cc32)cc(OC)c1` [Example 6, 5-[9-(3,5-Dimethoxy-benzyl)-6,7,8,9-tetrahydro-5-oxa-9-aza-benzocyclohepten-2-ylmethylene]-2-thioxo-thiazolidin-4-one], which IC50 is on record?
A: 151 nM

Q: How did the IC50 turn out when `Cc1cc(C)cc(CN2CCCOc3ccc(C=C4SC(=S)NC4=O)cc32)c1` [Example 7, 5-[9-(3,5-Dimethyl-benzyl)-6,7,8,9-tetrahydro-5-oxa-9-aza-benzocyclohepten-2-ylmethylene]-2-thioxo-thiazolidin-4-one] was run?
A: 780 nM

Q: How did the IC50 turn out when `CC1COc2ccc(C=C3SC(=S)NC3=O)cc2N1C(=O)c1ccccc1` (centres unmarked) [Example 8, 5-[3-Methyl-4-(-phenyl-methanoyl)-3,4-dihydro-2H-benzo[1,4]oxazine-6-ylmethylene]-2-thioxo-thiazolidin-4-one] was run?
A: 2180 nM

Q: For `Cc1cc(C)cc(CN2c3cc(C=C4SC(=S)NC4=O)ccc3OCC2C)c1` (centres unmarked) [Example 9, 5-[4-(3,5-Dimethyl-benzyl)-3-methyl-3,4-dihydro-2H-benzo[1,4]oxazine-6-ylmethylene]-2-thioxo-thiazolidin-4-one], which IC50 is on record?
A: 2590 nM

Q: `O=C1NC(=S)SC1=Cc1ccc2c(c1)NCCO2` [Example 10, 5-(3,4-dihydro-2H-benzo[1,4]oxazine-6-ylmethylene)-2-thioxo-thiazolidin-4-one] was tested. Which IC50 did it give?
A: 160 nM

Q: `O=C1NC(=S)SC1=Cc1ccc2c(c1)N(C(=O)Cc1ccc3ccccc3c1)CCO2` [Example 11, 5-[4-(2-Naphthalen-2-yl-acetyl)-3,4-dihydro-2H-benzo[1,4]oxazine-6-ylmethylene]-2-thioxo-thiazolidin-4-one] was tested. Which IC50 did it give?
A: 53 nM

Q: `O=C1NC(=S)SC1=Cc1ccc2c(c1)N(C(=O)c1ccncc1)CCO2` [Example 12] was tested. Which IC50 did it give?
A: 410 nM

Q: `O=C1NC(=S)SC1=Cc1ccc2c(c1)N(C(=O)c1cccnc1)CCO2` [Example 13] was tested. Which IC50 did it give?
A: 410 nM

Q: How did the IC50 turn out when `COc1cc(OC)cc(C(=O)N2CCOc3ccc(C=C4SC(=S)NC4=O)cc32)c1` [Example 14] was run?
A: 1130 nM

Q: Which IC50 does the source give for `O=C1NC(=S)SC1=Cc1ccc2c(c1)N(C(=O)Cc1ccc(Cl)c(Cl)c1)CCO2` [Example 15] here?
A: 7.3 nM
